Source: patent publication US12630527B2, “Broad spectrum anti-cancer compounds” (The Regents of the University of California, priority 2019, dated 2026)
Entries after “also recorded” stand apart in the source; their conditions may differ.

Experiments:
[1] = test system: human neural stem cells (hNSC); assay: Neurosphere formation assay, healthy neural stem cells; type: cell-based; conditions: healthy neural stem cells (hNSCs), 20 μM; listed as FTO-04
Description: (§1) To understand the effects of our FTO inhibitors on the self-renewal properties of GSCs, tumorospheres cultured from the patient-derived GSC line TS576 were treated with 30 μM of FTO-04, FTO-10, FTO-11, or FTO-12 (FIG. 29A-29B; cell line gifted from the Furnari lab).^45, 46 The GSCs were cultured in sphere-forming assays for 24 hours, then treated with either inhibitors or DMSO control for 2 days. The size of the tumorospheres was calculated using ImageJ.
(§2) Early passaged GSCs were used to understand the efficacy of ALK-04 on the self-renewal capacity of GSCs by tumorsphere-formation assay as described earlier^10, 11. In brief, GSCs were seeded at 4×10^4 cells in 24 well plate and cultured for 3 days followed by treatment with ALK-04 inhibitors at 20 μM daily for 3 days. After 3 days of treatment the images of the tumorospheres were imaged with phase contrast microscope and size was measured with Image J, to understand the effects of drugs on the self-renewal of GSCs on sphere formation. This process was also repeated for healthy neural stem cells (hNSCs) treated daily with 20 μM ALK-04 for three days to assess the therapeutic ratio.

[2] = target: T1, FTO (Homo sapiens, UniProt Q9C0B1); assay: Steady-state (Michaelis-Menten) inhibition kinetics, FTO; type: biochemical; conditions: velocity and double-reciprocal plots; 0-40 μM inhibitor, 0-10 μM substrate; listed as FTO-04
T1 construct: SUMO (N); His10 (N); made in house; host or cells: E. coli BL21
T1 sequence (Q9C0B1 whole entry): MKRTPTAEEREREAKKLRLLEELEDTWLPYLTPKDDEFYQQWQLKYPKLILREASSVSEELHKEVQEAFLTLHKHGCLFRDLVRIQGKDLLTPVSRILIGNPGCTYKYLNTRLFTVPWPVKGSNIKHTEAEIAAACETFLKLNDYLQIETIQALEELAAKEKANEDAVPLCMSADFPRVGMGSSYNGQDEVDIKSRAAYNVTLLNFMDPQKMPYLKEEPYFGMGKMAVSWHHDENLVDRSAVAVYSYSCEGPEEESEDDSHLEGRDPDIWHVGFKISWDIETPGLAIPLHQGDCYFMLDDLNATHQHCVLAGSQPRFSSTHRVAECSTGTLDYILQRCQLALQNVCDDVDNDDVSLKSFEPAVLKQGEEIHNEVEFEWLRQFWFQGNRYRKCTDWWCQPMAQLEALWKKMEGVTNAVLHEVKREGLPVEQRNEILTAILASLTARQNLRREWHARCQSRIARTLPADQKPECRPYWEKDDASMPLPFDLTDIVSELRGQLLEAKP

[3] = test system: TS576 glioblastoma stem cells; assay: Tumorosphere (neurosphere) formation assay, TS576; type: cell-based, human; conditions: 2 days
Description: as §1, §2

[4] = test system: GBM-6; assay: Tumorosphere (neurosphere) formation assay, GBM-6; type: cell-based, human; conditions: GBM-6, 20 μM, 2 days; listed as FTO-04
[5] = test system: GBM-GSC-23; assay: Tumorosphere (neurosphere) formation assay, GBM-GSC-23; type: cell-based, human; conditions: 20 μM, 2 days, listed as FTO-04
[6] = test system: m6A mRNA levels in TS576 cells; assay: m6A dot blot assay on poly(A)+ mRNA; type: cell-based, human; conditions: vs DMSO control, does not distinguish m6A and m6Am
Description: Next, we sought to determine if FTO-04 was able to alter m6A levels in purified mRNA from GSCs by m6A dot blot assay. TS576 cells were treated with 2, 10, and 50 ng shControl or shFTO to establish the relative change in m6A mRNA levels due to FTO knockdown. […] TS576 cells were then treated with 2, 10, and 50 ng of either DMSO or FTO-04 (FIG. 59B).
Polyadenylated mRNA were isolated from TS576 cells treated with either DMSO, FTO-04 (30 μM), and control (shControl) or FTO lentivirus (shFTO) knockdown samples by using Magnetic mRNA Isolation Kit (New England Biolabs, S1550S). Isolated mRNA was quantified, serially diluted and denatured at 95° C. for 3 min, then chilled on ice to prevent reformation of secondary structure of mRNA. Denatured mRNA samples were spotted on an Amersham Hybond-N^+ membrane (GE Healthcare, RPN3050B) and cross-linked to the membrane with UV radiation. After crosslinking the membrane was washed with phosphate buffer saline with 0.1% tween-20 (PBST) and blocked in 5% of non-fat milk in PBST buffer, and then incubated with anti-m^6A antibody (1:1000; abcam) overnight at 4° C. The membrane was then washed as before and incubated in HRP-conjugated secondary antibodies for 1 h at room temperature. The membrane was then developed with Thermo ECL SuperSignal West Femto Maximum Sensitivity Substrate (Thermo Fisher Scientific).

[7] = target: T1, FTO; assay: Fluorescence enzymatic inhibition assay (m6A7-Broccoli / DFHBI-1T), FTO; type: biochemical; conditions: fold more potent than MA (IC50=12.5)
Description: In order to determine their efficacy as FTO inhibitors, the compounds were screened by a fluorescence enzymatic inhibition assay developed previously by the Jaffrey lab.^44 Briefly, a nonfluorescent methylated RNA substrate termed “m6A7-Broccoli” is incubated with FTO in the presence of 2-oxoglutarate (300 μM), (NH4)2Fe(SO4)2·6H2O (300 μM), and L-ascorbate (2 mM) for 2 hours at room temperature in reaction buffer (50 mM NaHEPES, pH 6).
E. coli BL21 competent cells (New England Biolabs) were transformed with pET28-SUMO-His10-FTO plasmid (a generous gift from the Jaffrey lab) by heat shock and spread on a LB Kanamycin agar plate, then incubated overnight at 37° C. 2-3 colonies were picked and transferred to 5 mL of LB media treated with kanamycin (0.5 mg mL^−1 final concentration), then grown overnight shaking at 37° C. The overnight culture was then transferred to 2 L of LB kanamycin media and incubated at 37° C. until OD 0.8. The culture was cooled at 4° C. for 20 mins and induced with 0.5 mM isopropyl β-D-1-thiogalactopyranoside (IPTG), then grown shaken at 16° C. Cell pellets were collected by centrifugation (5,000 g for 10 min at 4° C.) and the supernatant was discarded. The pellets were resuspended in B-PER Bacterial Protein Extraction Reagent (6 mL per gram) with DNase 1 (5 U per mL, RNase-free) and incubated at 4° C. for 1 hour. The suspension was centrifuged at 10,000 g for 20 min and the supernatant was transferred to a Talon Metal Affinity Resin column that had been pre-equilibrized with binding buffer (50 mM NaH2PO4 pH 7.2, 300 mM NaCl, 20 mM imidazole, 1 mM β-mercaptoethanol in RNase-free water). […] The eluant was combined and transferred to a Slyde-A-Lyzer Dialysis Cassette (20,000 MWCO, Thermo Scientific) and dialyzed overnight at 4° C. against dialysis buffer (50 mM Tris-HCl pH 7.4, 100 mM NaCl, 5 mM B-mercaptoethanol, 5% (v/v) glycerol in RNase-free water). […] ALKBH5 was expressed and purified from pET28-SUMO-His10-ALKBH5 plasmid by the same procedure described above.
Inhibitors were added in concentrations ranging from 0.008-40 μM; all inhibitors were dissolved in DMSO and added to a final concentration of 0.2% DMSO. […] After incubation at room temperature for 2 hours, the plates were left at 4° C. overnight (16 hours) to allow DFHBI-1T to bind to A7-Broccoli RNA. […] Sigmoidal dose-response curves were fitted in GraphPad Prism 6. All assays were performed in triplicate, with additional repetitions added as necessary.

[8] = QikProp calculation of clogP and membrane permeability (Caco-2, MDCK models); conditions: predicted permeability models; fold
Description: In order to identify chemically distinct inhibitors of FTO, we used a combination of structure-based drug design and molecular docking with the Schrödinger software suite to target the MA binding site of FTO. […] Interactions with these four residues were considered highly favorable. […] Docking poses for FTO-1-20 are in the supporting information (FIGS. 32-51). Hits showing promising docking scores (absolute value ≥7) were also analyzed by QikProp to assess their physicochemical properties. As existing FTO inhibitors fail to progress to clinical applications due to poor pharmacokinetic profiles, it was important to filter our screen for compounds with more favorable physicochemical properties. […] These criteria were selected due to multiple studies indicating compounds with low molecular weight and moderate lipophilicity are more likely to show favorable adsorption and clearance rates, and less toxicity due to target promiscuity. As such, controlling the physicochemical properties of inhibitors during the initial screening stages should select for better leads for future optimization and development. Based on these criteria, the top 20 inhibitors were selected for synthesis (Table S1). These parameters were also calculated for MA, FB23-2 and its precursor FB23 (Table S2). […]

[9] = target: T1, FTO; conditions: reported (ref. 36); stated as selectivity against ALKBH5; cited from earlier work
[10] = test system: MONOMAC6 and NB4 cells; conditions: fold, Huang et. al; cited from earlier work

COc1ncc(-c2ccc3nc(N)sc3c2)cn1 [FTO-4, 6-(2-methoxypyrimidin-5-yl)benzo[d]thiazol-2-amine]
neurosphere size [1]: without impairing hNSC neurosphere growth; also recorded: no alteration in neurosphere size
mechanism of inhibition of FTO [2]: competitive inhibitor; also recorded: competitive mechanism of inhibition
size of tumorospheres ([3]; TS576, 20 μM, listed as FTO-04): inhibits GSC neurospheres formation; also recorded: significantly decrease the size of tumorospheres
size of tumorospheres ([3]; TS576, 30 μM, vs vehicle control): significant reduction in size of the tumorospheres
size of tumorospheres [4]: inhibits GSC neurospheres formation; also recorded: significantly decrease the size of tumorospheres
size of tumorospheres [5]: inhibits GSC neurospheres formation; also recorded: significantly decrease the size of tumorospheres
m6A mRNA levels [6]: increase m6A mRNA levels significantly compared to DMSO control
potency against FTO relative to MA [7]: approximately 4

Cc1noc(C)c1-c1cc(Cl)c(Nc2ccccc2C(=O)NO)c(Cl)c1 [FB23-2]
estimated rate of passive diffusion relative to FB23 [8]: ~2.5
inhibition of FTO at 50 μM [9]: little to no inhibition
cellular concentration relative to FB23 [10]: 3-10
